“Also recorded” adds a separate entry of the source.
What was measured:
[1] = biological target: T1, endogenous ENaC in mpkCCDc14 cells (Mus musculus, UniProt Q61180+Q9WU38+Q9WU39); conditions: mouse CCD cells; stated jointly with human airway; Carattino 2006; read-out: IC50, inhibition of ENaC activity; cited from earlier work
T1 construct: endogenous ENaC in a mouse cortical collecting duct (mpkCCDc14) cell line; endogenous in cells; host or cells: mpkCCDc14 mouse cortical collecting duct cell line

wild-type ENaC = biological target: T2, wild-type ENaC (Mus musculus, UniProt Q61180+Q9WU38+Q9WU39, DEL206-231); assay: Single channel cell-attached patch clamp in oocytes expressing wild-type ENaC, pipette back filled with peptide; type: cell-based
T2 construct: expressed in transfected cells; host or cells: Xenopus laevis oocytes (cRNA injection)
T2 sequence (Q61180 with tags, fused parts or gaps DEL206-231): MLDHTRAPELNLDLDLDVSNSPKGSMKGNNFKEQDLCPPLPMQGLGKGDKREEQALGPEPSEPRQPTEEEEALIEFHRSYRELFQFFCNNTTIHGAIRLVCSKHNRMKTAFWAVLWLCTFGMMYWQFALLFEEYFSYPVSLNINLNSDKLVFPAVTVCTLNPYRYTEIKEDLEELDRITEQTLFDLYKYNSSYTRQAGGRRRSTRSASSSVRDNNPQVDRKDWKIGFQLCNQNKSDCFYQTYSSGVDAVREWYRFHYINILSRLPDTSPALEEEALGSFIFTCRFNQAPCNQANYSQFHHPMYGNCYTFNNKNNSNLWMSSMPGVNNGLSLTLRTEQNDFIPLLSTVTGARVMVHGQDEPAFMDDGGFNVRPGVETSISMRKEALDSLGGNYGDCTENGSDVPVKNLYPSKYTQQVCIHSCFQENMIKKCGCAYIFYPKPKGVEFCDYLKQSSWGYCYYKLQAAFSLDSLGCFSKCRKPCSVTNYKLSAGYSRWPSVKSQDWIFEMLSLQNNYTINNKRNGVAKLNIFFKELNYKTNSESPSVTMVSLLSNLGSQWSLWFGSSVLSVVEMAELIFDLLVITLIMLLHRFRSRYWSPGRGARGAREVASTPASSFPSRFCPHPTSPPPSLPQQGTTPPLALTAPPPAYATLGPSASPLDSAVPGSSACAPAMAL
T2 sequence (Q9WU38 1-638): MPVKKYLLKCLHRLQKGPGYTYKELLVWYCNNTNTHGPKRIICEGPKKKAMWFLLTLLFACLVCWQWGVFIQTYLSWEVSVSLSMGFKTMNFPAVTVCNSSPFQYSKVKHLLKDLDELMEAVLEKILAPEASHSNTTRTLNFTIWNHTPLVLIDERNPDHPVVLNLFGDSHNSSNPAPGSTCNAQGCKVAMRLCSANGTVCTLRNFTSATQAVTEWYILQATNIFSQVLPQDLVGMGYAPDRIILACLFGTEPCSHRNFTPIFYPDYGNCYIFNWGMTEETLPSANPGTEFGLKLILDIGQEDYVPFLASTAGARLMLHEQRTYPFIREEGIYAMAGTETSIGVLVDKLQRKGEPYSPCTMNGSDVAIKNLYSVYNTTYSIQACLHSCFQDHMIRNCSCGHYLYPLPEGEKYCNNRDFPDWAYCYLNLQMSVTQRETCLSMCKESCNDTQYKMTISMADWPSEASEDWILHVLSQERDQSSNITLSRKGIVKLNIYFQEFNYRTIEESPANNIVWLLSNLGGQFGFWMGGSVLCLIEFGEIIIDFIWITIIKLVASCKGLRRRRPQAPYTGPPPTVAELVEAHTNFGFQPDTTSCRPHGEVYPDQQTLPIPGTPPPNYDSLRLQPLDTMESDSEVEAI
T2 sequence (Q9WU39 1-655): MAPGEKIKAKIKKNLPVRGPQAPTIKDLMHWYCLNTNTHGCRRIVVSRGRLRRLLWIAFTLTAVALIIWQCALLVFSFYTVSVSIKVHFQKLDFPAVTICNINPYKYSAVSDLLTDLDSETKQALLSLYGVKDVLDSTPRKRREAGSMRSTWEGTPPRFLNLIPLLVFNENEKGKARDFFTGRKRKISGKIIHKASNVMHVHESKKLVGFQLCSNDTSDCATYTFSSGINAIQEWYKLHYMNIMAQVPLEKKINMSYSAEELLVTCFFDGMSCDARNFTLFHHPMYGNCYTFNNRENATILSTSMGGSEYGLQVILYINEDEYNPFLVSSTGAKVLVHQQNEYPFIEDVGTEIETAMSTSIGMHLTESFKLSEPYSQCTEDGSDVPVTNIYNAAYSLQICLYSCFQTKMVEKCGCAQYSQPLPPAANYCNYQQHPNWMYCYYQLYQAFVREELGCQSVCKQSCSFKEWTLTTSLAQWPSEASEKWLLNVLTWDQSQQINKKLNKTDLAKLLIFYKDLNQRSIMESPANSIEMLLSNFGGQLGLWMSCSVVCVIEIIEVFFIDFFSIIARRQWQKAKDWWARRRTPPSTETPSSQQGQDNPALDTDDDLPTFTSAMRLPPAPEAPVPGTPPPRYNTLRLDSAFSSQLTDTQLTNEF
Experimental: Single Channel Studies—Bath and pipette solutions contained (in mM) 110 LiCl, 2 CaCl2, 2 KCl, and 10 Hepes, pH 7.4. Experiments were performed as previously described (Carattino, M. D., Sheng, S., and Kleyman, T. R. (2005), Mutations in the pore region modify epithelial sodium channel gating by shear stress, J Biol. Chem. 280, 4393-4401 33). Single channel currents were recorded in the cell-attached configuration of patch clamp, acquired at 5 kHz and filtered at 1 kHz by a 4-pole low pass Bessel filter. Single channel currents were further filtered at 100-200 Hz with a Gaussian filter for display and analysis. Recordings were performed at an applied pipette potential of +60 mV.
For experiments performed with α-26, the tip of the pipette was filled with standard patch solution. Pipette resistances were similar in control (7.8±0.4 MΩ) and α-26-treated patches (6.9±0.6 MΩ) (p=0.30, unpaired t test). […] Unitary currents, at an applied pipette potential of +60 mV, were similar in both control (0.42±0.2 pA, n=5) and α-26-containing patches (0.39±0.2 pA, n=7) (p=0.32, unpaired t test). […] At the beginning of the experiment open times were similar to that observed in controls (FIG. 4B). Over the course of the experiment openings decreased and were shorter in duration compared with control until channels were fully closed. […]

For “Ac-DLRGALPHPLQRLRTPPPPNPARSAR-NH2 [α-26]”, the IC50 [1] is listed as 50 to 100 µM, the unitary currents (wild-type ENaC; applied pipette potential +60 mV, α-26 10 μM in pipette) is listed as 0.39±0.2 pA and the “product of the number of channels and open probability (NPo) compared with controls” value (wild-type ENaC; pipette backfilled with α-26 10 μM) is listed as “reduces ENaC open probability; also recorded: reduction”.
